According to patent publication US8609610B2, “Inhibitors of the trypsin-like site of the proteasome and methods of use thereof” (Trustees of Dartmouth College, priority 2011, dated 2013):

What was measured:
Assay in all cases: ALAMAR BLUE cell viability assay
Assay type in all cases: cell-based
KMS-12-BM cells = conditions: then 48 h
Procedure: (§1) RPMI-8226 and NCI-H929 cells were cultured in RPMI-1640 supplemented with 10% fetal bovine serum, penicillin, streptomycin, and plasmocin in 5% CO2 humidified incubator. HEK-293T cells were cultured in DMEM containing 10% fetal calf serum, 10 units/mL penicillin, and 10 μg/mL streptomycin in a 7% CO2 humidified incubator. Viability of multiple myeloma cells was measured with ALAMAR BLUE mitochondrial dye conversion assay. Viability of peripheral blood mononuclear cells (PBMNCs) was measured using CELL TITER-GLO luminescent cell viability assay (Promega), which is based on quantification of ATP present in the cells. Caspase-3/7 activity was measured using APO-ONE 3/7 homogeneous assay (Promega).

KMS-18 cells = conditions: then 48 h
Procedure: as §1

MM1.R cells = conditions: LU-005 0.004 μM 1 h, then 48 h
Procedure: as §1

NCI-H929 cells = conditions: NCI-H929, then 48 h
Procedure: as §1

RPMI-8226 cells = conditions: RPMI-8226, then 48 h
Procedure: as §1

With `CC(C)C[C@H](NC(=O)[C@H](Cc1c(F)c(F)c(F)c(F)c1F)NC(=O)[C@H](Cc1ccccc1)NC(=O)[C@H](Cc1ccccc1)N=[N+]=[N-])C(=O)[C@@]1(C)CO1` [LU-005] the “Viability +NC-002 & NC-001” value (KMS-12-BM cells; LU-005 0.037 μM 1 h) was 50 ± 2 % control, the “Viability +NC-022” value (KMS-12-BM cells; LU-005 0.037 μM 1 h) was 90 ± 5 % control and the “Viability −NC-022” value (KMS-12-BM cells; LU-005 0.037 μM 1 h) was 89 ± 8 % control. The “Viability +NC-002 & NC-001” value (KMS-12-BM cells; LU-005 0.33 μM 1 h) was 2 ± 0 % control, the “Viability +NC-022” value (KMS-12-BM cells; LU-005 0.33 μM 1 h) was 12 ± 2 % control and the “Viability −NC-022” value (KMS-12-BM cells; LU-005 0.33 μM 1 h) was 80 ± 9 % control. For the same compound, the “Viability +NC-002 & NC-001” value (KMS-12-BM cells; LU-005 1.0 μM 1 h) was 1 ± 0 % control, the “Viability +NC-022” value (KMS-12-BM cells; LU-005 1.0 μM 1 h) was 1.5 ± 0.1 % control and the “Viability −NC-022” value (KMS-12-BM cells; LU-005 1.0 μM 1 h) was 27 ± 6 % control. For the same compound, the “Viability +NC-002 & NC-001” value (KMS-18 cells; LU-005 0.037 μM 1 h) was 79 ± 14 % control, the “Viability +NC-022” value (KMS-18 cells; LU-005 0.037 μM 1 h) was 104 ± 3 % control and the “Viability −NC-022” value (KMS-18 cells; LU-005 0.037 μM 1 h) was 108 ± 1 % control. For the same compound, the “Viability +NC-002 & NC-001” value (KMS-18 cells; LU-005 0.33 μM 1 h) was 33 ± 20 % control, the “Viability +NC-022” value (KMS-18 cells; LU-005 0.33 μM 1 h) was 106 ± 16 % control and the “Viability −NC-022” value (KMS-18 cells; LU-005 0.33 μM 1 h) was 108 ± 0 % control. For the same compound, the “Viability +NC-002 & NC-001” value (KMS-18 cells; LU-005 1.0 μM 1 h) was 8 ± 4 % control, the “Viability +NC-022” value (KMS-18 cells; LU-005 1.0 μM 1 h) was 29 ± 12 % control and the “Viability −NC-022” value (KMS-18 cells; LU-005 1.0 μM 1 h) was 88 ± 16 % control. For the same compound, the “Viability +NC-002 & NC-001” value (KMS-18 cells; LU-005 3.0 μM 1 h) was 1 ± 0.1 % control, the “Viability +NC-022” value (KMS-18 cells; LU-005 3.0 μM 1 h) was 24 ± 8 % control and the “Viability −NC-022” value (KMS-18 cells; LU-005 3.0 μM 1 h) was 72 ± 2 % control. The “Viability +NC-002 & NC-001” value (KMS-18 cells; LU-005 9.0 μM 1 h) was 0.8 ± 0.2 % control, the “Viability +NC-022” value (KMS-18 cells; LU-005 9.0 μM 1 h) was 17.5 ± 7.5 % control and the “Viability −NC-022” value (KMS-18 cells; LU-005 9.0 μM 1 h) was 45 ± 8 % control. For the same compound, the “Viability +NC-002 & NC-001” value (MM1.R cells) was 26 ± 6 % control, the “Viability +NC-022” value (MM1.R cells) was 66 ± 1 % control and the “Viability −NC-022” value (MM1.R cells) was 102 ± 4 % control. For the same compound, the “Viability +NC-002 & NC-001” value (NCI-H929 cells; LU-005 0.0014 μM 1 h) was 50 ± 17 % control, the “Viability +NC-022” value (NCI-H929 cells; LU-005 0.0014 μM 1 h) was 77 ± 2 % control and the “Viability −NC-022” value (NCI-H929 cells; LU-005 0.0014 μM 1 h) was 97 ± 9 % control. For the same compound, the “Viability +NC-002 & NC-001” value (NCI-H929 cells; LU-005 0.004 μM 1 h) was 36 ± 14 % control, the “Viability +NC-022” value (NCI-H929 cells; LU-005 0.004 μM 1 h) was 69 ± 0 % control and the “Viability −NC-022” value (NCI-H929 cells; LU-005 0.004 μM 1 h) was 100 ± 13 % control. The “Viability +NC-002 & NC-001” value (RPMI-8226 cells; LU-005 0.037 μM 1 h) was 76 ± 3 % control, the “Viability +NC-022” value (RPMI-8226 cells; LU-005 0.037 μM 1 h) was 104 ± 5 % control and the “Viability −NC-022” value (RPMI-8226 cells; LU-005 0.037 μM 1 h) was 109 ± 2 % control. The “Viability +NC-002 & NC-001” value (RPMI-8226 cells; LU-005 0.33 μM 1 h) was 4.6 ± 0.7 % control, the “Viability +NC-022” value (RPMI-8226 cells; LU-005 0.33 μM 1 h) was 31 ± 9 % control and the “Viability −NC-022” value (RPMI-8226 cells; LU-005 0.33 μM 1 h) was 94 ± 1 % control. The “Viability +NC-002 & NC-001” value (RPMI-8226 cells; LU-005 1.0 μM 1 h) was 1 ± 0 % control, the “Viability +NC-022” value (RPMI-8226 cells; LU-005 1.0 μM 1 h) was 6 ± 3 % control and the “Viability −NC-022” value (RPMI-8226 cells; LU-005 1.0 μM 1 h) was 10 ± 10 % control.
